For this experiment, the system named is L1210 leukemia ip in BDF1 mice, survival T/C. Description: NCI In Vivo Anticancer Drug Screen. Data for tumor model L1210 Leukemia (intraperitoneal) in B6D2F1 (BDF1) mice. The settings on record: endpoint: mean survival time, higher = longer survival. An outline of the steps: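 Survival endpoint. Drug-treated group vs vehicle group, expressed as T divided by C. Tumor passaged by transplantation.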

[1] abbreviates: dose: 100.0 mg/kg/injection, schedule: Q04DX003 (ip), vehicle: saline with Tween-80.
The mark [2] stands for this setting: dose: 400.0 mg/kg/injection, schedule: Q04DX003 (ip), vehicle: saline with Tween-80.
The mark [3] stands for this setting: dose: 25.0 mg/kg/injection, schedule: Q01DX009 (ip), vehicle: Klucel (hydroxypropylcellulose) (HPC).
Setting [4] is: dose: 50.0 mg/kg/injection, schedule: Q01DX009 (ip), vehicle: Klucel (hydroxypropylcellulose) (HPC).
[5] abbreviates: dose: 200.0 mg/kg/injection, schedule: Q04DX003 (ip), vehicle: saline with Tween-80.

Drawing on PubChem BioAssay AID248 (DTP/NCI, 2004), this text covers T/C for 14 molecules.

Where “and” joins values, the source holds several entries; their conditions need not be identical. Equal entries are not always repeated. Inconclusive results and toxic doses are left out.

On to `NC(=O)c1cc([N+](=O)[O-])ccc1N`, for which the T/C is 103 % of control (dose: 100.0 mg/kg/injection, schedule: Q01DX001 (ip), vehicle: other); 103 % of control (dose: 100.0 mg/kg/injection, schedule: Q04DX003 (ip), vehicle: saline sonified); 112 % of control (dose: 200.0 mg/kg/injection, schedule: Q01DX001 (ip), vehicle: other); 105 % of control (dose: 200.0 mg/kg/injection, schedule: Q04DX003 (ip), vehicle: saline sonified); 95 % of control (dose: 400.0 mg/kg/injection, schedule: Q01DX001 (ip), vehicle: other); 111 % of control (dose: 400.0 mg/kg/injection, schedule: Q04DX003 (ip), vehicle: saline sonified).
Regarding `O=C(CC(=O)Nc1ccc([N+](=O)[O-])cc1)Nc1ccc([N+](=O)[O-])cc1`, the T/C under setting [1] was 87 % of control and the T/C under setting [2] was 92 % of control.
Consider `Cc1ccc(S(=O)(=O)OCCCCOS(=O)(=O)c2ccc(C)cc2)cc1`, for which the T/C by setting is: (dose: 100.0 mg/kg/injection, schedule: Q01DX009 (ip), vehicle: Klucel (hydroxypropylcellulose) (HPC)) 99 % of control; (dose: 100.0 mg/kg/injection, schedule: Q04DX003 (ip), vehicle: Klucel (hydroxypropylcellulose) (HPC)) 91 % of control; (dose: 200.0 mg/kg/injection, schedule: Q01DX009 (ip), vehicle: Klucel (hydroxypropylcellulose) (HPC)) 89 % of control; (dose: 200.0 mg/kg/injection, schedule: Q04DX003 (ip), vehicle: Klucel (hydroxypropylcellulose) (HPC)) 100 % of control; (dose: 400.0 mg/kg/injection, schedule: Q01DX009 (ip), vehicle: Klucel (hydroxypropylcellulose) (HPC)) 100 % of control; (dose: 400.0 mg/kg/injection, schedule: Q04DX003 (ip), vehicle: Klucel (hydroxypropylcellulose) (HPC)) 105 % of control.
Consider `O=C(Nc1ccc(CCNC2=NCCN2)cc1)c1ccc(C(=O)Nc2ccc(CCNC3=NCCN3)cc2)cc1`, for which the T/C runs as follows: (dose: 1.0 mg/kg/injection, schedule: Q01DX Z (ip), vehicle: water) 107 % of control; (dose: 1.5 mg/kg/injection, schedule: Q01DX Z (ip), vehicle: water) 109 % of control; (dose: 3.0 mg/kg/injection, schedule: Q01DX Z (ip), vehicle: water) 158 % of control; (dose: 3.75 mg/kg/injection, schedule: Q01DX Z (ip), vehicle: water) 167 % of control; (dose: 7.5 mg/kg/injection, schedule: Q01DX Z (ip), vehicle: water) 151 % of control; (dose: 10.0 mg/kg/injection, schedule: Q01DX Z (ip), vehicle: carboxymethylcellulose (CMC)) 216 % of control. Moreover, the T/C (dose: 15.0 mg/kg/injection, schedule: Q01DX Z (ip), vehicle: water) was 92 % of control; the T/C (dose: 20.0 mg/kg/injection, schedule: Q01DX Z (ip), vehicle: carboxymethylcellulose (CMC)) was 180 % of control; the T/C (dose: 40.0 mg/kg/injection, schedule: Q01DX Z (ip), vehicle: carboxymethylcellulose (CMC)) was 118 % of control; the T/C (dose: 62.0 mg/kg/injection, schedule: Q01DX Z (oral), vehicle: water) was 101 % of control; the T/C (dose: 80.0 mg/kg/injection, schedule: Q01DX Z (ip), vehicle: carboxymethylcellulose (CMC)) was 108 % of control; the T/C (dose: 125.0 mg/kg/injection, schedule: Q01DX Z (oral), vehicle: water) is 100 % of control. The T/C runs as follows: (dose: 250.0 mg/kg/injection, schedule: Q01DX Z (oral), vehicle: water) 109 % of control; (dose: 500.0 mg/kg/injection, schedule: Q01DX Z (oral), vehicle: water) 101 % of control.
`CCN(CC)CCN(CC)C(=O)C1C(c2ccccc2)C1c1ccccc1` (stereo not given): the T/C was 102 % of control (dose: 25.0 mg/kg/injection, schedule: Q04DX002 (ip), vehicle: Klucel (hydroxypropylcellulose) (HPC)) and 102 % of control (dose: 50.0 mg/kg/injection, schedule: Q04DX002 (ip), vehicle: Klucel (hydroxypropylcellulose) (HPC)).
For the molecule `CC(C)CC1NC(=O)C(C(C)C)NC(=O)CC(C)COC(=O)C(CC(C)C)N(C)C(=O)C(C(C)C)NC(=O)C(C(C)C)OC1=O` (stereo not given), the T/C (dose: 75.0 mg/kg/injection, schedule: Q01DX001 (ip), vehicle: carboxymethylcellulose (CMC)) was 96 % of control and the T/C (dose: 150.0 mg/kg/injection, schedule: Q01DX001 (ip), vehicle: carboxymethylcellulose (CMC)) is 96 % of control.
As to `CC(CO)(CO)Cc1ccccc1`, the T/C is, setting by setting: (dose: 100.0 mg/kg/injection, schedule: Q04DX002 (ip), vehicle: saline with Tween-80) 97 % of control; (dose: 200.0 mg/kg/injection, schedule: Q04DX002 (ip), vehicle: saline with Tween-80) 108 % of control; (dose: 400.0 mg/kg/injection, schedule: Q04DX002 (ip), vehicle: saline with Tween-80) 120 % of control.
In the case of `Nc1ncnc2c1ncn2C1OC(CO)C(O)C1OCc1ccccc1` (stereo not given), the T/C runs as follows: (dose: 100.0 mg/kg/injection, schedule: Q01DX005 (ip), vehicle: saline) 90 % of control; (dose: 200.0 mg/kg/injection, schedule: Q01DX005 (ip), vehicle: saline) 103 % of control.
As for `CC1(C)N=C(N)N=C(N)N1c1cc(Cl)c(Cl)cc1Cl`, the T/C (dose: 6.0 mg/kg/injection, schedule: Q01DX009 (ip), vehicle: Klucel (hydroxypropylcellulose) (HPC)) was 105 % of control; the T/C (dose: 12.0 mg/kg/injection, schedule: Q01DX009 (ip), vehicle: Klucel (hydroxypropylcellulose) (HPC)) is 103 % of control; the T/C (dose: 12.0 mg/kg/injection, schedule: Q04DX003 (ip), vehicle: Klucel (hydroxypropylcellulose) (HPC)) is 95 % of control; the T/C under setting [3] is 96 % of control and 102 % of control; the T/C (dose: 25.0 mg/kg/injection, schedule: Q04DX003 (ip), vehicle: Klucel (hydroxypropylcellulose) (HPC)) was 101 % of control; the T/C under setting [4] was 108 % of control. For the same molecule, the T/C (dose: 50.0 mg/kg/injection, schedule: Q04DX003 (ip), vehicle: Klucel (hydroxypropylcellulose) (HPC)) is 102 % of control.
For the molecule `CN(C)C(=O)C(=O)C1C=Cc2ccccc21` (stereo not given), the T/C under setting [1] was 93 % of control, the T/C under setting [5] is 88 % of control and the T/C under setting [2] was 102 % of control.
Take `O=C(c1ccccc1)c1nonc1C(=O)c1ccccc1`: the T/C reads like this: (dose: 100.0 mg/kg/injection, schedule: Q01DX009 (ip), vehicle: saline sonified) 93 % of control; under setting [1], 97 % of control; (dose: 200.0 mg/kg/injection, schedule: Q01DX009 (ip), vehicle: saline sonified) 90 % of control; under setting [5], 92 % of control; (dose: 400.0 mg/kg/injection, schedule: Q01DX009 (ip), vehicle: saline sonified) 93 % of control; under setting [2], 97 % of control.
Consider `CC(=O)c1c(O)c(Br)c(C)oc1=O`, for which the T/C (dose: 6.25 mg/kg/injection, schedule: Q01DX009 (ip), vehicle: Klucel (hydroxypropylcellulose) (HPC)) was 100 % of control; the T/C (dose: 12.5 mg/kg/injection, schedule: Q01DX009 (ip), vehicle: Klucel (hydroxypropylcellulose) (HPC)) is 96 % of control; the T/C under setting [3] was 93 % of control; the T/C under setting [4] is 89 % of control.
`O=C(O)C(CSC(c1ccccc1)(c1ccccc1)c1ccccc1)N=Cc1cccs1` (stereo not given): the T/C (dose: 22.0 mg/kg/injection, schedule: Q01DX009 (ip), vehicle: saline) was 123 % of control; the T/C (dose: 66.0 mg/kg/injection, schedule: Q01DX009 (ip), vehicle: saline with Tween-80) is 109 % of control; the T/C (dose: 66.0 mg/kg/injection, schedule: Q01DX009 (ip), vehicle: saline) is 152 % of control and 214 % of control; the T/C (dose: 150.0 mg/kg/injection, schedule: Q01DX009 (ip), vehicle: saline with Tween-80) was 98 % of control; the T/C (dose: 150.0 mg/kg/injection, schedule: Q01DX009 (ip), vehicle: saline) was 104 % of control.
For the molecule `CCOc1ccc(C(=O)Nc2ccc(C3=NCCN3)cc2)cc1C(=O)Nc1ccc(C2=NCCN2)cc1`, the T/C was 93 % of control (dose: 30.0 mg/kg/injection, schedule: Q01DX Z (oral), vehicle: saline); 91 % of control (dose: 60.0 mg/kg/injection, schedule: Q01DX Z (oral), vehicle: saline); 107 % of control (dose: 62.5 mg/kg/injection, schedule: Q01DX010 (oral), vehicle: saline); 103 % of control (dose: 120.0 mg/kg/injection, schedule: Q01DX Z (oral), vehicle: saline); 112 % of control (dose: 125.0 mg/kg/injection, schedule: Q01DX010 (oral), vehicle: saline); 92 % of control (dose: 240.0 mg/kg/injection, schedule: Q01DX Z (oral), vehicle: saline). Besides, the T/C is 112 % of control (dose: 250.0 mg/kg/injection, schedule: Q01DX010 (oral), vehicle: saline) and 106 % of control (dose: 500.0 mg/kg/injection, schedule: Q01DX010 (oral), vehicle: saline).
